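Values below derive from 48-hour exposures of cells grown in 96-well plates, with endpoints linearly interpolated between the two concentrations bracketing the appropriate inhibition level. The concentration for 50% growth inhibition is given as GI50.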 Activity calls are given as the source filed them. Cut-off read from the data, not from the text of the source: active = GI50 up to about 1.1 µM and inactive = higher.
Legend:
Test in all cases: DTP human tumour cell line panel, 48 h
NCI-H226 = test system: NCI-H226
786-0 = test system: 786-0
NCI-H460 = test system: NCI-H460
OVCAR-8 = test system: OVCAR-8
TK-10 = test system: TK-10
ACHN = test system: ACHN
NCI-H23 = test system: NCI-H23
RPMI-8226 = test system: RPMI-8226
UO-31 = test system: UO-31
CCRF-CEM = test system: CCRF-CEM
SK-MEL-2 = test system: SK-MEL-2
SK-OV-3 = test system: SK-OV-3
SK-MEL-5 = test system: SK-MEL-5
K562 = test system: K562
RXF 393 = test system: RXF 393

Measured: GI50

O=C1[C@H]2ON(c3ccccc3)C(c3ccc(Cl)cc3Cl)[C@H]2C(=O)N1c1ccc(Cc2ccc(N3C(=O)[C@@H]4ON(c5ccccc5)C(c5ccc(Cl)cc5Cl)[C@@H]4C3=O)cc2)cc1 (stereo not given in full)
inactive: NCI-H226 > 100 µM | 786-0 > 100 µM | NCI-H460 > 100 µM | OVCAR-8 > 100 µM | TK-10 > 100 µM | ACHN > 100 µM | NCI-H23 > 100 µM | RPMI-8226 > 100 µM | UO-31 > 100 µM | CCRF-CEM > 100 µM | SK-MEL-2 > 100 µM | SK-OV-3 > 100 µM | SK-MEL-5 73.1 µM | K562 > 100 µM

COc1cc2c(cc1OC)[C@H]1C(COC(=O)Nc3ccccc3)CN1CC2 (stereo not given in full)
inactive: 786-0 > 100 µM | NCI-H460 > 100 µM | OVCAR-8 > 100 µM | TK-10 > 100 µM | ACHN > 100 µM | NCI-H23 > 100 µM | RXF 393 58.5 µM | RPMI-8226 > 100 µM | UO-31 > 100 µM | CCRF-CEM > 100 µM | SK-MEL-2 > 100 µM | SK-OV-3 > 100 µM | SK-MEL-5 53.8 µM | K562 > 100 µM

CSc1n[n+]2c(s1)SCCC2
inactive: 786-0 > 100 µM | NCI-H460 > 100 µM | OVCAR-8 > 100 µM | TK-10 > 100 µM | ACHN > 100 µM | NCI-H23 > 100 µM | RXF 393 > 100 µM | UO-31 19.8 µM | CCRF-CEM > 100 µM | SK-MEL-5 46.5 µM | K562 > 100 µM

CCCCCCCCCCCCCCCCCC(=O)O[C@H](COC(=O)CCCCCCCCCCC)COC(=O)CCCCCCCCCCCCCCC
inactive: NCI-H226 > 100 µM | 786-0 > 100 µM | NCI-H460 > 100 µM | OVCAR-8 > 100 µM | TK-10 > 100 µM | ACHN > 100 µM | NCI-H23 > 100 µM | RPMI-8226 > 100 µM | UO-31 > 100 µM | CCRF-CEM > 100 µM | SK-OV-3 > 100 µM | SK-MEL-5 > 100 µM | K562 > 100 µM

COC(=O)C(C(=O)C(=O)Nc1ccc(OC)cc1[N+](=O)[O-])c1nc2cc(C)c(C)cc2nc1O (stereo not given)
inactive: NCI-H226 > 100 µM | 786-0 > 100 µM | NCI-H460 > 100 µM | OVCAR-8 > 100 µM | TK-10 > 100 µM | ACHN > 100 µM | NCI-H23 > 100 µM | RXF 393 > 100 µM | UO-31 > 100 µM | CCRF-CEM > 100 µM | SK-OV-3 > 100 µM | SK-MEL-5 > 100 µM | K562 31.6 µM

NS(=O)(=O)c1ccc(Nc2c3ccccc3nc3c(C(=O)N4CCN(CCO)CC4)cccc23)cc1
inactive: NCI-H226 > 100 µM | 786-0 > 100 µM | NCI-H460 > 100 µM | OVCAR-8 > 100 µM | TK-10 > 100 µM | ACHN > 100 µM | NCI-H23 > 100 µM | RXF 393 > 100 µM | UO-31 > 100 µM | CCRF-CEM 95.3 µM | SK-MEL-2 > 100 µM | SK-OV-3 > 100 µM | SK-MEL-5 > 100 µM | K562 53.2 µM

Cc1ccc(S(=O)(=O)NC(=O)NC23CC4CC(CC(F)(C4)C2)C3)cc1
inactive: 786-0 > 100 µM | NCI-H460 > 100 µM | OVCAR-8 > 100 µM | TK-10 > 100 µM | ACHN > 100 µM | NCI-H23 > 100 µM | RXF 393 > 100 µM | RPMI-8226 > 100 µM | UO-31 > 100 µM | CCRF-CEM > 100 µM | SK-MEL-2 > 100 µM | SK-OV-3 > 100 µM | SK-MEL-5 > 100 µM | K562 > 100 µM

COc1cc(CC2c3cc(OC)c(OC)cc3CCN2C)ccc1O (stereo not given)
inactive: 786-0 > 100 µM | NCI-H460 > 100 µM | OVCAR-8 > 100 µM | TK-10 > 100 µM | ACHN > 100 µM | NCI-H23 > 100 µM | RPMI-8226 > 100 µM | UO-31 > 100 µM | CCRF-CEM > 100 µM | SK-MEL-2 > 100 µM | SK-MEL-5 > 100 µM | K562 > 100 µM

Reference: ChEMBL document CHEMBL1201862, “PubChem BioAssay data set” (2004)
